Assay results taken from patent publication US8435949B2, “Pheromones and the luteinizing hormone for inducing proliferation of neural stem cells and neurogenesis” (Stem Cell Therapeutics Corp., priority 2004, dated 2013).
“And” between values parts separate entries of the source, which are not always exact repeats. Equal entries are not always repeated.

What was measured:
[1] = tested on: neural stem cells; assay: Neural stem cell culture: secondary sphere formation from dissociated primary spheres (self-renewal); format: cell-based, mice; details: for number of secondary spheres: EGF or EGF plus LH (30 nM), limited density, Exp. #1-#3
Method: Generation and differentiation of spheres from embryonic and adult forebrain were performed as described previously with minor modifications (Reynolds and Weiss, 1992; Reynolds et al., 1992). Briefly, striato-pallidum complexes were removed from mouse embryos at E14 and collected into PBS containing 0.6% glucose, penicillin (50 U/ml), and streptomycin (50 U/ml; both from Life Technologies, Gaithersburg, Md.) and then transferred into the standard culture medium composed of DMEM-F-12 (1:1), glucose (0.6%), glutamine (2 mM), sodium bicarbonate (3 mM), HEPES buffer (5 mM), insulin (25 μg/ml), transferrin (100 μg/ml), progesterone ([…]), putrescine (60 μM), and selenium chloride (30 nM) (all from Sigma, St. Louis, Mo., except glutamine from Life Technologies) For adult neural stem cell cultures, medial and lateral portions of the lateral ventricle subependyma from the adult brain were dissected from both hemispheres, pooled together, subsequently cut into 1 mm^2 fragments, and transferred into the standard culture medium containing 1.33 mg/ml trypsin, 0:67 mg/ml hyaluronidase, and 0.2 mg/ml kynurenic acid (all from Sigma). After 30 min at 37° C., the tissue was transferred to the standard culture medium containing 0.7 mg/ml trypsin inhibitor (Roche Diagnostics, Laval, Quebec, Canada). Tissue pieces were mechanically dissociated with micropipettes. Cells were seeded at various densities into the standard culture medium, which also contained EGF (20 ng/ml human recombinant; Peprotech, Rocky Hill, N.J.). Cells were cultured for 7 days in vitro (DIV) and formed floating cell clusters (spheres). All the mice for culture experiments were killed by cervical dislocation.

[2] = tested on: neural stem cells in the SVZ; assay: Infusion into the lateral ventricle by osmotic pump; BrdU positive (proliferating) cells counted in the SVZ; format: in vivo, mice; details: infusion of combination of LH and prolactin or hCG and prolactin vs LH or hCG; Example 5
Method: To examine the number of progenitor cells in the SVZ after treatment, bromodeoxyuridine (BrdU) injections were used to label these cells. Animals received BrdU injections (120 mg/kg, i.p., dissolved in 0.007% NaOH in phosphate buffer) every 2 hours for a 10 hour period.
The sections were post-fixed with acetone for 30 seconds at room temperature and washed with PBS. For BrdU staining, the tissue was treated with 1M HCl for 22 minutes at 60° C. to denature cellular DNA. Sections were then incubated for 24 hours at room temperature in primary antibody (rat anti-BrdU, 1:50) diluted in 0.3% PBS-T containing 10% NGS, washed with PBS, and then incubated with goat-anti-rat secondary antibodies conjugated to biotin (1:200) for 1 hour at room temperature. After rinsing with ddH2O, sections were mounted with Fluorosave, because staining was visualized with CY3-Streptavodin, and viewed with a Zeiss Axiophot fluorescence microscope.
A one-in-ten series of coronal sections (14 μm) from the rostral tip of the lateral ventricle to caudal most aspect of the ventricles (total 10 sections) were collected. BrdU-positive cells were then counted in the defining ependymal-subependymal layer.
Sixteen 8-week-old CD-1 mice (Charles-River, Laval, Quebec, Canada) were anesthetized with sodium pentobarbital (120 mg/kg, i.p.) and implanted with osmotic pumps (Alzet 1007D; Alza, Palo Alto, Calif.). […]

Row | Molecule | number of secondary spheres ([1]; neural stem cells isolated from female mice) | number of secondary spheres ([1]; neural stem cells isolated from male mice) | proliferation in the SVZ, prolactin added to LH or hCG [2] | self-renewal (the number of secondary spheres from primary spheres) ([1]; prolactin added with LH or hCG in neural stem cell cultures, Example 5)
1 | EGF: EGF, 20 ng/ml human recombinant; Peprotech; comparator culture condition | 172.3 and 157.6 and 197.9 | 144.4 and 225.1 and 168.2 | – | –
2 | prolactin: additional agent given in combination with LH or hCG (protein, UniProt P01236 29-227, looked up) Prolactin: LPICPGGAARCQVTLRDLFDRAVVLSHYIHNLSSEMFSEFDKRYTHGRGFITKAINSCHTSSLATPEDKEQAQQMNQKDFLSLIVSILRSWNEPLYHLVTEVRGMQEAPEAILSKAVEIEEQTKRLLEGMELIVSQVHPETKENEIYPVWSGLPSLQMADEESRLSAYYNLLHCLRRDSHKIDNYLKLLKCRIIHNNNC | – | – | further enhances the effects of LH or hCG | enhanced
